Numbered stars: 1 amine (or outer) side, 2 acyl side, 3 side chain; on linkers, the order of the positions; unused ones are H or OH. Bridge positions count the residues as written; N and C are the ends. Square brackets hold non-standard residues; d marks the D form. Peptide text beside a SMILES is read from it. X1 = O=C([C@@H](CN[*:1])CSCC1O[C@@H](O)C(O)[C@H](O)[C@H]1O)[*:2]; Dap = NC[C@H](N)C(=O)O; Dha = C=C(N)C(=O)O

These results are taken from ChEMBL document CHEMBL1130985, “A novel super-potent neurokinin A receptor antagonist containing dehydroalanine” (Bioorg Med Chem Lett, 1998).

In test [1] the target is T1, Substance-K receptor (Rattus norvegicus) (UniProt P16610).
T1 sequence (whole entry): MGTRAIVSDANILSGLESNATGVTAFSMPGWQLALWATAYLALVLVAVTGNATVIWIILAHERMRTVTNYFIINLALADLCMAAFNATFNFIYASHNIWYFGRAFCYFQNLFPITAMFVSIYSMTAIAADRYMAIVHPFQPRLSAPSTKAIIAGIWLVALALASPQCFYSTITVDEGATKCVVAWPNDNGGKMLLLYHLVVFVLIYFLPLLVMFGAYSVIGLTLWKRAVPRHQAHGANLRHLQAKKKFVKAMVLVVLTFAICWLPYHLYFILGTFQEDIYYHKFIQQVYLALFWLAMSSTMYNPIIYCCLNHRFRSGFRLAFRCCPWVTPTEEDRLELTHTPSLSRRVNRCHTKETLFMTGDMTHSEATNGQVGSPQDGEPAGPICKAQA
Put plainly: Antagonistic activity against Tachykinin receptor 2 in rat vas deferens at 30 nM concentration. The class given is functional.

For a further test, the target named is T2, Substance-K receptor (Rattus norvegicus, UniProt P16610).
T2 sequence (P16610 whole entry): T1 sequence (whole entry)
Put plainly: pA2 value against Tachykinin receptor 2 in rat vas deferens. The class given is tissue-based. The settings on record: for Kb: read-out: pA2 (converted).

Test [2] addresses T1, Substance-K receptor (Rattus norvegicus). Put plainly: Antagonistic activity against Tachykinin receptor 2 in rat vas deferens at 10 nM concentration. The class given is functional.
Test [3] shares this target. Put plainly: Antagonistic activity against Tachykinin receptor 2 in rat vas deferens at 100 nM concentration. Type of test: functional.

Consider `CSCC[C@@H]1NC(=O)[C@H](CC(C)C)NC(=O)[C@@H]2CNC(=O)C[C@H](NC1=O)C(=O)N[C@@H](Cc1c[nH]c3ccccc13)C(=O)N[C@@H](Cc1ccccc1)C(=O)N2` (cyclo(DWF[Dap]LM); lactam 1-4), for which the Emax in test [1] came out at 96%; in test [2], 95%; in test [3], 94%. Also, on Substance-K receptor, the Kb was 6.17 nM.
With `C=C1NC(=O)[C@H](CC(C)C)NC(=O)[C@@H]2CNC(=O)C[C@H](NC1=O)C(=O)N[C@@H](Cc1c[nH]c3ccccc13)C(=O)N[C@@H](Cc1ccccc1)C(=O)N2` (cyclo(DWF[Dap]L[Dha]); lactam 1-4), the pA2 on Substance-K receptor worked out at 9.65.
Consider `CC(C)C[C@@H]1NC(=O)[C@@H]2CNC(=O)C[C@H](NC(=O)[C@H](CSCC3O[C@@H](O)C(O)[C@H](O)[C@H]3O)CNC1=O)C(=O)N[C@@H](Cc1c[nH]c3ccccc13)C(=O)N[C@@H](Cc1ccccc1)C(=O)N2` (some centres undefined) (cyclo(DWF[Dap]L[X1]); lactam 1-4), for which the Emax in test [1] was 99%; in test [2], 96%; in test [3], 92%. For the same molecule, on Substance-K receptor, the Kb is 5.62 nM.

Broadly, the Emax is the maximal effect, on the per cent scale that the assay sets. What is called pA2 is a measure of antagonist potency on a negative log scale.
